In patent publication US12187713B2, “Immunomodulators, compositions and methods thereof” (Betta Pharmaceuticals Co., Ltd, priority 2019, dated 2025):

Tests used:
PD-1/PD-L1 = PD-1/PD-L1 (Homo sapiens (Human), UniProt Q9NZQ7); test: PD-1/PD-L1 Binding Assay (Alphascreen)
Summary of the method: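 PD-1/PD-L1 binding detected by anti-6×His acceptor and streptavidin donor beads after 120 min in the dark at 25 °C. Beforehand, the two proteins were incubated 15 min at 25 °C with inhibitor at 0.015–300 nM (1% DMSO). IC50 comes from a log concentration–response curve.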

[1] = Pharmacokinetic Assay, single oral dose 100 mg/kg (Table 11); assay type: in vivo; settings: mouse, C57 female mice, oral (intragastric), plasma
Description: Adult C57 female mice were received to single-dose of the test compounds with […], 10% Kolliphor^@HS 15 and 80% saline as excipients, the mice (n=9) were giving oral administration (intragastric administration) with the compounds at a dose of 100 mg/kg. Time of blood collection: 15 min, 30 min, 1 h, 2 h, 4 h, 7 h, 24 h. Approximately 0.1 mL of whole blood was collected from retro-orbital venous plexus of 3 mice at each time point, and placed into tubes that contained K2-EDTA as an anticoagulant. The whole blood was centrifuged at 4° C. and 4000 rpm for 10 min. The plasma was transferred into centrifuge tubes, and stored at −20° C. until being analyzed. Concentrations of test compounds in the plasma samples were analyzed with liquid chromatography-tandem mass spectrometry (LC-MS/MS). Plasma concentration-time data of individual animals was analyzed using Microsoft Excel 2010. Non-compartmental model was introduced in concentration analysis. The pharmacokinetic parameters of the test compounds were calculated using WinNonlin (version 4.1; Pharsight) software.

[2] = Pharmacokinetic Assay, single oral dose 5 mg/kg (Table 12); assay type: in vivo; settings: mouse, plasma concentration, C57 female mice, single oral dose 5 mg/kg
Summary of the method: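 Adult female C57 mice (n=3) got one intragastric dose of 5 mg/kg in 15% DMSO, 10% Kolliphor HS 15, 75% saline. Retro-orbital blood was taken at 30 min, 2 h and 4 h into K2-EDTA. Plasma levels were measured by LC-MS/MS.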

PD-1/PD-L1, sequence (Q9NZQ7 19-238): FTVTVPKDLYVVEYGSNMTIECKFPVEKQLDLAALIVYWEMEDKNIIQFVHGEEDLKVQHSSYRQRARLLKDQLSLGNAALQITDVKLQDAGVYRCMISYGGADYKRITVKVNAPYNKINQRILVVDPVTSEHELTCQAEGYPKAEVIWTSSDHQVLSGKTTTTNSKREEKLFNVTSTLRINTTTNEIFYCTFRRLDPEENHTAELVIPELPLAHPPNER

Compound | IC50 (PD-1/PD-L1; numeric values) | AUC [1] | Cmax [1] | Tmax [1] | half-life [1] | concentration at 0.5 h ([2]; 0.5 h) | concentration at 2 h ([2]; 2 h) | concentration at 4 h ([2]; 4 h) | IC50 (PD-1/PD-L1; range symbols)
Cc1c(-c2nc3cc(CN4CC(C)(C)C4)c(OC(F)F)cc3o2)cccc1-c1cccc(-c2nc3cc(CN4CCC[C@H]4C(=O)O)c(OC(F)F)cc3o2)c1C [Example 34, ((6-(difluoromethoxy)-2-(3′-(6-(difluoromethoxy)-5-((3,3-dimethylazetidin-1-yl)methyl)benzo[d]oxazol-2-yl)-2,2′-dimethyl-[1,1′-biphenyl]-3-yl)benzo[d]oxazol-5-yl)methyl)-L-proline] | 1.3 nM | 56.1 µg·h/mL | 4260 ng/mL | 4 h | 6.99 h | 46.8 ng/mL | 136 ng/mL | 154 ng/mL | –
Cc1c(-c2nc3cc(CN4CCC[C@H]4C(=O)O)c(OC(F)F)cc3o2)cccc1-c1cccc(-c2nc3cc(CN4CCCC4)c(OC(F)F)cc3o2)c1C#N [Example 65, ((2-(2′-cyano-3′-(6-(difluoromethoxy)-5-(pyrrolidin-1-ylmethyl)benzo[d]oxazol-2-yl)-2-methyl-[1,1′-biphenyl]-3-yl)-6-(difluoromethoxy)benzo[d]oxazol-5-yl)methyl)proline] | 1.3 nM | 40.4 µg·h/mL | 2460 ng/mL | 4 h | 10.7 h | – | – | – | –
Cc1c(-c2nc3cc(CN4CC5(CC5)C4)c(OC(F)F)cc3o2)cccc1-c1cccc(-c2nc3cc(CN4CCC[C@H]4C(=O)O)c(OC(F)F)cc3o2)c1C [Example 74, ((2-(3′-(5-((5-azaspiro [2.3]hexan-5-yl)methyl)-6-(difluoromethoxy)benzo[d]oxazol-2-yl)-2,2′-dimethyl-[1,1′-biphenyl]-3-yl)-6-(difluoromethoxy)benzo[d]oxazol-5-yl)methyl)-L-proline] | 1.1 nM | 59.5 µg·h/mL | 4460 ng/mL | 4 h | 8.2 h | – | – | – | –
Cc1c(-c2nc3cc(CN4CCC[C@H]4C(=O)O)c(OC(F)F)cc3o2)cccc1-c1cccc(-c2nc3cc(CN4CC(C)(C)C4)cc(C(F)(F)F)c3o2)c1C [Example 93, ((6-(difluoromethoxy)-2-(3′-(5-((3,3-dimethylazetidin-1-yl)methyl)-7-(trifluoromethyl)benzo[d]oxazol-2-yl)-2,2′-dimethyl-[1,1′-biphenyl]-3-yl)benzo[d]oxazol-5-yl)methyl)-L-proline] | – | 163 µg·h/mL | 9220 ng/mL | 4 h | – | – | – | – | 0.1 to 5 nM
Cc1c(Nc2nccc3cc(CN4CCC[C@@]4(C)C(=O)O)cnc23)cccc1-c1cccc(-c2nc3cc(CN4CCC[C@H]4C(=O)O)c(OC(F)F)cc3o2)c1C [Example 171, (S)-1-((8-((3′-(5-(((S)-2-carboxypyrrolidin-1-yl)methyl)-6-(difluoromethoxy)benzo[d]oxazol-2-yl)-2,2′-dimethyl-[1,1′-biphenyl]-3-yl)amino)-1,7-naphthyridin-3-yl)methyl)-2-methylpyrrolidine-2-carboxylic acid] | – | 3.47 µg·h/mL | 965 ng/mL | 1 h | 3.66 h | – | – | – | 0.1 to 5 nM
Cc1c(Nc2nccc3cc(CN4CCC(O)C4)cnc23)cccc1-c1cccc(-c2nc3cc(CN4CCC[C@H]4C(=O)O)c(OC(F)F)cc3o2)c1C (stereo partly drawn) [Example 175, ((6-(difluoromethoxy)-2-(3′-((3-((3-hydroxypyrrolidin-1-yl)methyl)-1,7-naphthyridin-8-yl)amino)-2,2′-dimethyl-[1,1′-biphenyl]-3-yl)benzo[d]oxazol-5-yl)methyl)-L-proline] | 3.4 nM | 19.9 µg·h/mL | 1630 ng/mL | 2 h | 3.63 h | – | – | – | –
Cc1c(-c2nc3c(o2)CCNC3)cccc1-c1cccc(-c2nc3cc(CN4CCC[C@H]4C(=O)O)c(OC(F)F)cc3o2)c1C [Example 190, ((6-(difluoromethoxy)-2-(2,2′-dimethyl-3′-(4,5,6,7-tetrahydrooxazolo[4,5-c]pyridin-2-yl)-[1,1′-biphenyl]-3-yl)benzo[d]oxazol-5-yl)methyl)-L-proline] | 0.2 nM | 8.57 µg·h/mL | 1280 ng/mL | 1 h | 3.57 h | – | – | – | –
Cc1c(-c2ccc(CN3CCCC3)c(F)c2)cccc1-c1cccc(-c2nc3cc(CN4CCC[C@H]4C(=O)O)c(OC(F)F)cc3o2)c1C [Example 243, ((6-(difluoromethoxy)-2-(3″-fluoro-2,2′-dimethyl-4″-(pyrrolidin-1-ylmethyl)-[1,1′:3′,1″-terphenyl]-3-yl)benzo[d]oxazol-5-yl)methyl)-L-proline] | 2.5 nM | 67.4 µg·h/mL | 4890 ng/mL | 1 h | 6.93 h | – | – | – | –
Cc1c(-c2ccc(CN3CCCC3)c(OC(F)F)c2)cccc1-c1cccc(-c2nc3cc(CN4CCC[C@H]4C(=O)O)c(OC(F)F)cc3o2)c1C [Example 244, ((6-(difluoromethoxy)-2-(3″-(difluoromethoxy)-2,2′-dimethyl-4″-(pyrrolidin-1-ylmethyl)-[1,1′:3′,1″-terphenyl]-3-yl)benzo[d]oxazol-5-yl)methyl)-L-proline] | 2 nM | 78.1 µg·h/mL | 5740 ng/mL | 2 h | 7.01 h | – | – | – | –
Cc1c(-c2nc3c(o2)CCN(C)C3)cccc1-c1cccc(-c2nc3cc(CN4CCC[C@H]4C(=O)O)c(OC(F)F)cc3o2)c1C [Example 314, ((6-(difluoromethoxy)-2-(2,2′-dimethyl-3′-(5-methyl-4,5,6,7-tetrahydrooxazolo[4,5-c]pyridin-2-yl)-[1,1′-biphenyl]-3-yl)benzo[d]oxazol-5-yl)methyl)-L-proline] | 8 nM | 29 µg·h/mL | 6350 ng/mL | 2 h | 5.43 h | – | – | – | –

Results, then the molecule that gave them:

IC50 (PD-1/PD-L1; numeric values) | AUC [1] | Cmax [1] | Tmax [1] | half-life [1] | concentration at 0.5 h ([2]; 0.5 h) | concentration at 2 h ([2]; 2 h) | concentration at 4 h ([2]; 4 h) | IC50 (PD-1/PD-L1; range symbols) | Compound
– | 2020 µg·h/mL | 117000 ng/mL | 24 h | – | – | – | – | 0.1 to 5 nM | Cc1c(-c2nc3cc(CN4CCC[C@H]4C(=O)O)c(OC(F)F)cc3o2)cccc1-c1cccc(-c2nc3cc(CN4CCC(C)C4)cc(C(F)(F)F)c3o2)c1C (stereo partly drawn) [Example 88, ((6-(difluoromethoxy)-2-(2,2′-dimethyl-3′-(5-((3-methylpyrrolidin-1-yl)methyl)-7-(trifluoromethyl)benzo[d]oxazol-2-yl)-[1,1′-biphenyl]-3-yl)benzo[d]oxazol-5-yl)methyl)-L-proline]
1.4 nM | 22.9 µg·h/mL | 2030 ng/mL | 4 h | 6.48 h | – | – | – | – | Cc1c(-c2nc3cc(CN4CCC[C@H]4C(=O)O)c(OC(F)F)cc3o2)cccc1-c1cccc(-c2nc3cc(CN4CCCC4)cc(F)c3o2)c1C [Example 95, ((6-(difluoromethoxy)-2-(3′-(7-fluoro-5-(pyrrolidin-1-ylmethyl)benzo[d]oxazol-2-yl)-2,2′-dimethyl-[1,1′-biphenyl]-3-yl)benzo[d]oxazol-5-yl)methyl)-L-proline]
– | 8.7 µg·h/mL | 1010 ng/mL | 1 h | 4.47 h | – | – | – | 0.1 to 5 nM | Cc1c(-c2nc3cc(CN4CCCC4)ccc3o2)cccc1-c1cccc(-c2nc3cc(CN4CCC[C@H]4C(=O)O)c(OC(F)F)cc3o2)c1C [Example 98, ((6-(difluoromethoxy)-2-(2,2′-dimethyl-3′-(5-(pyrrolidin-1-ylmethyl)benzo[d]oxazol-2-yl)-[1,1′-biphenyl]-3-yl)benzo[d]oxazol-5-yl)methyl)-L-proline]
– | 235 µg·h/mL | 18900 ng/mL | 4 h | 10.5 h | – | – | – | 0.1 to 5 nM | Cc1c(-c2nc3cc(CN4CCC[C@H]4C(=O)O)c(OC(F)F)cc3o2)cccc1-c1cccc(-c2nc3cc(CN4CCCC4)cc(C(F)(F)F)c3o2)c1C [Example 100, ((6-(difluoromethoxy)-2-(2,2′-dimethyl-3′-(5-(pyrrolidin-1-ylmethyl)-7-(trifluoromethyl)benzo[d]oxazol-2-yl)-[1,1′-biphenyl]-3-yl)benzo[d]oxazol-5-yl)methyl)-L-proline]
– | 10.1 µg·h/mL | 713 ng/mL | 1 h | 21.7 h | – | – | – | 0.1 to 5 nM | Cc1c(-c2nc3ccc(CN4CCCC4)cc3o2)cccc1-c1cccc(-c2nc3cc(CN4CCC[C@H]4C(=O)O)c(OC(F)F)cc3o2)c1C [Example 108, ((6-(difluoromethoxy)-2-(2,2′-dimethyl-3′-(6-(pyrrolidin-1-ylmethyl)benzo[d]oxazol-2-yl)-[1,1′-biphenyl]-3-yl)benzo[d]oxazol-5-yl)methyl)-L-proline]
